Consider one compound from PMC8920929 (The Journal of Biological Chemistry, 2022).

Test [1] deals with T1, TRPV3-D512A (Homo sapiens, UniProt Q8NET8, D512A).
T1 sequence (Q8NET8 1-790 D512A): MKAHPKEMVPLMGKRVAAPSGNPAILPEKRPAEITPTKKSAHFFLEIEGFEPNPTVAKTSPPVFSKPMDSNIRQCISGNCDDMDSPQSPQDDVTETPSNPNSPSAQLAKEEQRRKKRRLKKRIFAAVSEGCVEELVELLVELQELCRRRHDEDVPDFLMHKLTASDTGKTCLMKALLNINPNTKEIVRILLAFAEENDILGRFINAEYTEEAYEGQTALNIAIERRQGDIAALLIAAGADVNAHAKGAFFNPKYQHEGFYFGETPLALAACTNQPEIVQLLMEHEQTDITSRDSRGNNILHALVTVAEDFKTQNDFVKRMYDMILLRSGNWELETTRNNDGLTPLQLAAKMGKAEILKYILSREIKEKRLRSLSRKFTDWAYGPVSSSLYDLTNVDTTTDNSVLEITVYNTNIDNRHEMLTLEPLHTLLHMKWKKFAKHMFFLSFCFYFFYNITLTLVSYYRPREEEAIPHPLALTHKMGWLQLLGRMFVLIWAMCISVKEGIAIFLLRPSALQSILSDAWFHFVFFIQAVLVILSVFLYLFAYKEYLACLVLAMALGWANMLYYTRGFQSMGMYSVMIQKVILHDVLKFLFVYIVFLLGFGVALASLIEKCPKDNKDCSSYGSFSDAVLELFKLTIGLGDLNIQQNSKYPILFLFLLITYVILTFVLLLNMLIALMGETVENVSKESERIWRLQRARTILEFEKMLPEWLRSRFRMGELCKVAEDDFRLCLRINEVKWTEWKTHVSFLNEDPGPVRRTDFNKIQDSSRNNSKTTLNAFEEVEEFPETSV
The experiment in a line: Whole-cell and single-channel recordings of the TRPV3-D512A mutant. Format: cell-based.

The target in test [2] is T2, TRPV3-L508A (Homo sapiens, UniProt Q8NET8, L508A).
T2 sequence (Q8NET8 1-790 L508A): T1 sequence (Q8NET8 1-790 D512A) with L508A, A512D
The experiment in a line: Whole-cell and single-channel recordings of the TRPV3-L508A mutant. Format: cell-based. Conditions: carvacrol 0.3-3.0 mM or 50 μM 2-APB.

In test [3] the target is T3, TRPV3-L508F (Homo sapiens, UniProt Q8NET8, L508F).
T3 sequence (Q8NET8 1-790 L508F): T1 sequence (Q8NET8 1-790 D512A) with L508F, A512D
Put plainly: Whole-cell and single-channel recordings of the TRPV3-L508F mutant. Format: cell-based. To be noted: carvacrol 0.3-3.0 mM or 50 μM 2-APB.

In test [4] the test system is TRPV3. Conditions: read-out: EC50, activation of TRPV3; ref [23], [30]; cited from earlier work.
The subject of test [5] is mice. To be noted: mice, but not TRPV3-KO mice; ref [33], [34]; cited from earlier work.

Residue numbers refer to the chain shown, from its start.

Turning to `Cc1ccc(C(C)C)cc1O` [carvacrol, 5-Isopropyl-2-methylphenol], the EC50 (usually the concentration at which the effect is half-maximal) in test [1] was 3.21 ± 0.48 mM; in test [4] it was 497 ± 70 µM. For the same compound, the “right shift of channel activation versus WT TRPV3” value in test [1] (D512A versus WT) is “over 10 fold”. Also, the “sensitivity of TRPV3 D512A mutant channel” value in test [1] (carvacrol 0.3-3.0 mM) is “decreased the sensitivity”. Besides, the “activation of TRPV3 L508A mutant channel” value in test [2] is given as “loss of the mutant channel activation”. The “activation of TRPV3 L508F mutant channel” value in test [3] is “ablated TRPV3 activation”. For the same compound, the “pruritus on pharmacological activation of TRPV3” value in test [5] was “induces pruritus”.
